Data reported in BindingDB's records for patent US20230312550 (Astrazeneca, 2023).

Biological target: T1, Prolyl endopeptidase FAP (Homo sapiens, UniProt Q12884)
T1 sequence (Q12884 whole entry): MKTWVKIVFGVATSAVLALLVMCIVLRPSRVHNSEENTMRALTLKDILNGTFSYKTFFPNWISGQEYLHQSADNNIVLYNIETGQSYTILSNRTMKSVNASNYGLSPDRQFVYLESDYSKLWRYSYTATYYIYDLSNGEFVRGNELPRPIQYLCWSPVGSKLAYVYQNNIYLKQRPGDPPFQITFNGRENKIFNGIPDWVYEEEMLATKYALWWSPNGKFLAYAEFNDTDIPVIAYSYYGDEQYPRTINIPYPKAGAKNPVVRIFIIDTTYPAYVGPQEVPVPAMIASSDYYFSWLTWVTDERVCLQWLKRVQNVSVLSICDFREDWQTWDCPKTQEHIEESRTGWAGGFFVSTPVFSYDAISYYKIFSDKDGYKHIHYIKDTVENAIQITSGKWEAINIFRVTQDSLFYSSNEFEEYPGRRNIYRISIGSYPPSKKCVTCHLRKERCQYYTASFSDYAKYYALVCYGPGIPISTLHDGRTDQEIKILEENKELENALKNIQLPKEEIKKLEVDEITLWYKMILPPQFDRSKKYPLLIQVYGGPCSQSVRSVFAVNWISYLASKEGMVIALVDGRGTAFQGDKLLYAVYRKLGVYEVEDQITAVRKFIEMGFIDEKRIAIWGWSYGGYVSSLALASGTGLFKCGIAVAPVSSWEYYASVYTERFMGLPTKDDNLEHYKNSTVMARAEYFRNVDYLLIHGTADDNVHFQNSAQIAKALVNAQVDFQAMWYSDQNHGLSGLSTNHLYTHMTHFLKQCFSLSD
Test: hFAP Binding Assay
Conditions: for kon: read-out: kon (M-1-s-1)
Procedure: Table 1: Compounds were tested in a direct binding assay using 8K surface plasmon resonance biosensor (GE Healthcare) at 20° C. Immobilization of hFAP (M39-A757) on a CMD200M sensor chip (Xantec) was performed using standard amine coupling procedure in immobilization buffer (10 mM HEPES, 150 mM NaCl, 0.05% Tween20, pH 7.4). The surface was washed with 10 mM NaOH, 1M NaCl before being activated with EDC/NHS (GE Healthcare), followed by immobilization of hFAP (in 10 mM Acetate pH 5.0). Finally, the surface was deactivated by ethanolamine. Immobilization levels of hFAP were around 4000-6000 RU. The reference spot was treated as described, omitting the injection of hFAP. Compound concentration series were injected over the immobilized protein in increasing concentrations (2-500 nM) using single cycle kinetics in running buffer (20 mM TRIS, 150 mM NaCl, 0.05% Tween20, 1% DMSO, pH 7.4).

Row | SMILES | koff | kon | koff (s-1)
1 | CC1(C)OCCN(c2ccc3nccc(C(=O)NCC(=O)N4CSC[C@H]4C#N)c3c2)C1=O [US20230312550, Example 16] | 4.1e-05 s⁻¹ | 740000 M⁻¹ s⁻¹ | 
2 | N#C[C@@H]1CSCN1C(=O)CNC(=O)c1ccnc2ccc(N3CC(F)(c4ccccc4)C3)cc12 [US20230312550, Example 182] | 4.2e-05 s⁻¹ | 250000 M⁻¹ s⁻¹ | 
3 | COC[C@H]1[C@H](C)OCCN1c1ccc2nccc(C(=O)NCC(=O)N3CSC[C@H]3C#N)c2c1 [US20230312550, Example 96] | 0.00022 s⁻¹ | 4e+06 M⁻¹ s⁻¹ | 
4 | N#C[C@@H]1CSCN1C(=O)CNC(=O)c1ccnc2ccc(N3C[C@H]4CCC[C@@H](C3)O4)cc12 [US20230312550, Example 194] | 6.8e-05 s⁻¹ | 1.1e+06 M⁻¹ s⁻¹ | 
5 | N#C[C@@H]1CSCN1C(=O)CNC(=O)c1ccnc2ccc(-c3cncnc3)cc12 [US20230312550, Example 127] | 0.002 s⁻¹ | 6e+06 M⁻¹ s⁻¹ | 
6 | C[C@@H]1CCCN(c2ccc3nccc(C(=O)NCC(=O)N4CSC[C@H]4C#N)c3c2)C1=O [US20230312550, Example 204] | 5.8e-05 s⁻¹ | 850000 M⁻¹ s⁻¹ | 
7 | COC[C@@H]1CCCN1c1ccc2nccc(C(=O)NCC(=O)N3CSC[C@H]3C#N)c2c1 [US20230312550, Example 212] | 0.00034 s⁻¹ | 3.3e+06 M⁻¹ s⁻¹ | 
8 | CS(=O)(=O)C[C@H]1CN(c2ccc3nccc(C(=O)NCC(=O)N4CSC[C@H]4C#N)c3c2)CCO1 [US20230312550, Example 92] | 0.00011 s⁻¹ | 2.2e+06 M⁻¹ s⁻¹ | 
9 | CS(=O)(=O)C[C@@H]1CN(c2ccc3nccc(C(=O)NCC(=O)N4CSC[C@H]4C#N)c3c2)CCO1 [US20230312550, Example 94] | 9.9e-05 s⁻¹ | 1.9e+06 M⁻¹ s⁻¹ | 
10 | Cn1nccc1-c1ccc2nccc(C(=O)NCC(=O)N3CSC[C@H]3C#N)c2c1 [US20230312550, Example 174] | 0.00024 s⁻¹ | 1.9e+06 M⁻¹ s⁻¹ | 
11 | N#C[C@@H]1CSCN1C(=O)CNC(=O)c1ccnc2ccc(N3C[C@@H]4[C@H](C3)[C@H]4C(F)(F)F)cc12 [US20230312550, Example 208] | 0.00026 s⁻¹ | 5.6e+06 M⁻¹ s⁻¹ | 
12 | Cc1cc(C(F)(F)F)nn1-c1ccc2nccc(C(=O)NCC(=O)N3CSC[C@H]3C#N)c2c1 [US20230312550, Example 116] | 0.0012 s⁻¹ | 7.9e+06 M⁻¹ s⁻¹ | 
13 | N#C[C@@H]1CSCN1C(=O)CNC(=O)c1ccnc2ccc(-n3ccc4c(F)cc(F)cc43)cc12 [US20230312550, Example 119] | 0.00031 s⁻¹ | 610000 M⁻¹ s⁻¹ | 
14 | N#C[C@@H]1CSCN1C(=O)CNC(=O)c1ccnc2ccc(N3CC4CC(C3)O4)cc12 [US20230312550, Example 77] | 6.6e-05 s⁻¹ | 4.8e+06 M⁻¹ s⁻¹ | 
15 | N#C[C@@H]1CSCN1C(=O)CNC(=O)c1ccnc2ccc(N3C[C@H]4C[C@@H]3CO4)cc12 [US20230312550, Example 76] | 5.2e-05 s⁻¹ | 1e+06 M⁻¹ s⁻¹ | 
16 | N#C[C@@H]1CSCN1C(=O)CNC(=O)c1ccnc2ccc(N3CCOC[C@@H]3C(F)(F)F)cc12 [US20230312550, Example 85] | 0.00011 s⁻¹ |  | 0.00011 s⁻¹
17 | C[C@@H]1COC[C@H](C)N1c1ccc2nccc(C(=O)NCC(=O)N3CSC[C@H]3C#N)c2c1 [US20230312550, Example 90] | 0.0001 s⁻¹ | 480000 M⁻¹ s⁻¹ | 

Further lines, results first:

Row | koff | kon | koff (s-1) | SMILES
18 | 0.00011 s⁻¹ | 540000 M⁻¹ s⁻¹ |  | N#C[C@@H]1CSCN1C(=O)CNC(=O)c1ccnc2ccc(N3CCC[C@H]3C(F)(F)F)cc12 [US20230312550, Example 56]
19 | 6.5e-05 s⁻¹ | 1.3e+06 M⁻¹ s⁻¹ |  | N#C[C@@H]1CSCN1C(=O)CNC(=O)c1ccnc2ccc(N3CC(C(F)(F)F)C3)cc12 [US20230312550, Example 26]
20 | 8e-05 s⁻¹ | 620000 M⁻¹ s⁻¹ |  | CC1(C2CC2)CN(c2ccc3nccc(C(=O)NCC(=O)N4CSC[C@H]4C#N)c3c2)C1 [US20230312550, Example 134]
21 | 0.00018 s⁻¹ | 2.1e+06 M⁻¹ s⁻¹ |  | N#C[C@@H]1CSCN1C(=O)CNC(=O)c1ccnc2ccc(N3CC(F)(F)C3)cc12 [US20230312550, Example 23]
22 | 0.0001 s⁻¹ | 900000 M⁻¹ s⁻¹ |  | N#C[C@@H]1CSCN1C(=O)CNC(=O)c1ccnc2ccc(N3CCC(F)(F)CC3)cc12 [US20230312550, Example 35]
23 | 5.1e-05 s⁻¹ | 2.6e+06 M⁻¹ s⁻¹ |  | CCC1(O)CCN(c2ccc3nccc(C(=O)NCC(=O)N4CSC[C@H]4C#N)c3c2)CC1 [US20230312550, Example 189]
24 | 0.00019 s⁻¹ | 2.6e+06 M⁻¹ s⁻¹ |  | N#C[C@@H]1CSCN1C(=O)CNC(=O)c1ccnc2ccc(N3CCCC[C@@H](F)C3)cc12 [US20230312550, Example 59]
25 | 0.00051 s⁻¹ | 9.1e+06 M⁻¹ s⁻¹ |  | N#C[C@@H]1CSCN1C(=O)CNC(=O)c1ccnc2ccc(N3CC(CC(F)F)C3)cc12 [US20230312550, Example 144]
26 | 1.4e-05 s⁻¹ | 950000 M⁻¹ s⁻¹ |  | CC(=O)N1CC2(C1)CN(c1ccc3nccc(C(=O)NCC(=O)N4CSC[C@H]4C#N)c3c1)C2 [US20230312550, Example 184]
27 | 0.00013 s⁻¹ | 4.5e+06 M⁻¹ s⁻¹ |  | N#C[C@@H]1CSCN1C(=O)CNC(=O)c1ccnc2ccc(N3CC(C4CC4)C3)cc12 [US20230312550, Example 145]
28 | 0.00018 s⁻¹ | 8e+06 M⁻¹ s⁻¹ |  | CC1(C)CCCN1c1ccc2nccc(C(=O)NCC(=O)N3CSC[C@H]3C#N)c2c1 [US20230312550, Example 57]
29 | 0.00012 s⁻¹ | 2.8e+06 M⁻¹ s⁻¹ |  | CC(F)(F)C1CN(c2ccc3nccc(C(=O)NCC(=O)N4CSC[C@H]4C#N)c3c2)C1 [US20230312550, Example 147]
30 | 0.00022 s⁻¹ | 2.6e+07 M⁻¹ s⁻¹ |  | COC1CN(c2ccc3nccc(C(=O)NCC(=O)N4CSC[C@H]4C#N)c3c2)C1 [US20230312550, Example 66]
31 | 8.2e-05 s⁻¹ | 2.2e+06 M⁻¹ s⁻¹ |  | CC1(F)CCN(c2ccc3nccc(C(=O)NCC(=O)N4CSC[C@H]4C#N)c3c2)CC1 [US20230312550, Example 34]
32 | 0.00017 s⁻¹ | 1.4e+06 M⁻¹ s⁻¹ |  | N#C[C@@H]1CSCN1C(=O)CNC(=O)c1ccnc2ccc(N3CC(CCF)C3)cc12 [US20230312550, Example 146]
33 | 9.2e-05 s⁻¹ | 2.1e+06 M⁻¹ s⁻¹ |  | C[C@H]1N(c2ccc3nccc(C(=O)NCC(=O)N4CSC[C@H]4C#N)c3c2)CC1(F)F [US20230312550, Example 159]
34 | 0.091 s⁻¹ | 8.8e+09 M⁻¹ s⁻¹ |  | N#C[C@@H]1CSCN1C(=O)CNC(=O)c1ccnc2ccc(N3CC4(CC4)C[C@@H]3CF)cc12 [US20230312550, Example 58]
35 | 0.00012 s⁻¹ | 4.2e+06 M⁻¹ s⁻¹ |  | CC1(C)CCN1c1ccc2nccc(C(=O)NCC(=O)N3CSC[C@H]3C#N)c2c1 [US20230312550, Example 20]
36 | 0.00016 s⁻¹ | 1.1e+06 M⁻¹ s⁻¹ |  | N#C[C@@H]1CSCN1C(=O)CNC(=O)c1ccnc2ccc(N3CCO[C@H](C(F)(F)F)C3)cc12 [US20230312550, Example 74]
37 | 7.4e-05 s⁻¹ | 1.1e+06 M⁻¹ s⁻¹ |  | N#C[C@@H]1CSCN1C(=O)CNC(=O)c1ccnc2ccc(N3CC4C(C3)C4(F)F)cc12 (stereo not given in full) [US20230312550, Example 160]
38 | 6.2e-05 s⁻¹ | 3e+06 M⁻¹ s⁻¹ |  | N#C[C@@H]1CSCN1C(=O)CNC(=O)c1ccnc2ccc(N3CCCC4(CC4)C3)cc12 [US20230312550, Example 46]
39 | 2.6e-05 s⁻¹ | 2.5e+06 M⁻¹ s⁻¹ |  | N#C[C@@H]1CSCN1C(=O)CNC(=O)c1ccnc2ccc(N3CCC(F)(c4ccccc4)CC3)cc12 [US20230312550, Example 223]
40 | 0.00014 s⁻¹ | 1.8e+06 M⁻¹ s⁻¹ |  | CC1(CC(F)(F)F)CN(c2ccc3nccc(C(=O)NCC(=O)N4CSC[C@H]4C#N)c3c2)C1 [US20230312550, Example 131]
